Experimental data as given in patent US20240174637A1, “DEGRADERS OF GRK2 AND USES THEREOF” (Sonata Therapeutics, Inc., priority 2021, published 2024).
pIC50: −log10 of the molar value. Like-named read-outs stand apart in the source and are kept apart here.

Columns and labels:
Assay type in all cases: cell-based
[1] = tested on: PAXF1657 EV; test: 7-day cellular proliferation assay (CellTiter-Glo), PAXF1657 EV; settings: for pIC50: proliferation, read-out: GeoMean IC50 (UM) PAXF1657 EV; for IC50: 168 h, 7-day, read-out: 7-day proliferation assay: IC50 GeoMean (uM) [Cell Line: PAXF1657 EV]
Experimental: (§1) In order to identify compounds specific for GRK2, we generated two isogenic cell line pairs of the pancreatic cancer cell line PAXF1657, a pair of cells stably overexpressing GRK2 cDNA or the control empty vector and a cell line pair of PAXF1657 GRK2 knockout clonal cells versus non-targeting control clonal cells.
(§2) Proliferation Assay: Cellular anti-proliferative activity of compounds was assessed by using the pancreatic cancer cell line, PAXF1657, stably overexpressing GRK2 cDNA or the control empty vector, as well as the parental urinary bladder cancer cell line, 5637. In addition, we also took advantage of GRK2 knockout cell lines that were generated via CRISPR. Cell lines were seeded into tissue culture treated, white-walled, 96-well plates at a density of 500 cells/well in RPMI1640 media supplemented with 10% H.I. FBS and penicillin/streptomycin. Plates were incubated overnight at 37° C., 5% CO2 to allow cells to adhere to the wells. GRK2 inhibitors were added to the cells using a 10-point dilution series with a final concentration ranging from 30 μM-0.0002 μM in 0.3% DMSO. At the time of compound addition, a set of plates, that were not treated with compounds, were collected and cell viability was measured using CellTiter-Glo (Promega). CellTiter-Glo reagent was added to the designed plates and luminescence was measuring using a Biotek Synergy plate reader. The compound treated cells were incubated for 3 days at 37° C., 5% CO2. The media was then aspirated from each well and replaced with fresh media containing GRK2 inhibitors. The compound treated cells were then incubated for an additional 4 days at 37° C., 5% CO2. Cell viability was assessed and at end of the 7-day compound treatment by CellTiterGlo.

[2] = tested on: PAXF1657 KO Clone #4; test: 7-day cellular proliferation assay (CellTiter-Glo), PAXF1657 KO Clone #4
Experimental: as §1, §2

[3] = biological target: T1, GRK2 (Homo sapiens, UniProt P25098); test: GRK2 Degradation Assay and Western Blot in PAXF1657 cells; parameters: endogenous in cells; host or cells: PAXF1657
T1 sequence (P25098 1-689): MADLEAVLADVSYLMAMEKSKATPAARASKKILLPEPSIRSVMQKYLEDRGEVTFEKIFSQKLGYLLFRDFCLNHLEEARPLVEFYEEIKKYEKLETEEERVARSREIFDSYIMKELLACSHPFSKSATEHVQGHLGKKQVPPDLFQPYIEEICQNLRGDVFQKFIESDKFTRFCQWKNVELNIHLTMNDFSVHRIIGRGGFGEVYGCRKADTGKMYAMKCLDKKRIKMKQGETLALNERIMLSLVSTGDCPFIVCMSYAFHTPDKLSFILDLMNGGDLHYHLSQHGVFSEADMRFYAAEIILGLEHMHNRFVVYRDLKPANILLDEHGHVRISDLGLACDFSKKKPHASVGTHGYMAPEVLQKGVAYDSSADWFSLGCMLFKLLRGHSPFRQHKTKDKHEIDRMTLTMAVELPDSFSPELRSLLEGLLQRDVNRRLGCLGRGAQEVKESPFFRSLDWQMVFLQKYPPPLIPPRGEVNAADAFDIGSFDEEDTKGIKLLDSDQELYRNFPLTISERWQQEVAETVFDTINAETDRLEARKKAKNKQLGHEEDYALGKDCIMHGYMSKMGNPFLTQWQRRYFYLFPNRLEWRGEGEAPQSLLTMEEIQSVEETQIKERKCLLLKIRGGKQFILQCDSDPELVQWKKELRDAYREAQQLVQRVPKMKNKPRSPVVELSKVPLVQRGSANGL
Experimental: General Protocol: Degradation Assay and Western Blot. PAXF1657 cells were plated in 6-well, 24-well plates or 60 mm tissue culture treated dishes and incubated at 37° C. until 70% confluency. The media was aspirated, and the cells were treated with fresh media containing the compounds in the concentration range of 0 μM to 10 μM for a period of 6 to 24 hours. At the desired time points the cells were washed twice with cold PBS and lysed with lysis buffer (ice cold PBS+1% NP40 with 1/100 protease/phosphatase inhibitors) on ice for 8 mins followed by sonication at 70% intensity pulses for 10 seconds. The cells were centrifuged at 20000 g for 8 min at 4° C. The supernatants were collected and stored at −80° C.
Samples were mixed with NuPAGE LDS sample buffer and NuPAGE sample reducing buffer (3×), vortexed and heated at 95° C. for 10 min, and then analyzed by SDS-PAGE (NuPAGE 4-12%) followed by transfer to nitrocellulose membrane. […] The membranes were washed three times with TBST and incubated with GRK2 or R-actin antibodies in 5% milk in TBST at 4° C. overnight. The membranes were washed three times with TBST and incubated with anti-mouse IgG-HRP or anti-rabbit IgG-HRP at room temperature for 2 hours in 5% milk in TBST. The membranes were washed three times with TBST and developed with ECL Dura, ECL femto or ECL atto substrates.

[4] = proliferation, read-out: GeoMean IC50 (uM) PAXF1657 KO Clone #4
[5] = Conc 0.3 uM, read-out: Degradation Assay - 3 point: Degradation (%)
[6] = Conc 1 uM, read-out: Degradation Assay - 3 point: Degradation (%)
[7] = Conc 3 uM, read-out: Degradation Assay - 3 point: Degradation (%)
[8] = 168 h, 7-day, read-out: 7-day proliferation assay: IC50 GeoMean (uM) [Cell Line: PAXF1657 KO Clone #4]
[9] = 1 uM, PAXF1657 EV, 24 hrs, read-out: % GRK2 degradation at 1 uM in PAXF1657 EV (24 hrs)
[10] = 3 uM, PAXF1657 EV, 24 hrs, read-out: % GRK2 degradation at 3 uM in PAXF1657 EV (24 hrs)

## C[C@@H](NC(=O)c1cccc(NCc2nnc(-c3ccncn3)n2C)c1)c1cccc(OCCCCCCn2cc(CCCCC(=O)Nc3cccc4c3CN(C3CCC(=O)NC3=O)C4=O)nn2)c1 (stereo partly drawn) [Compound D166]
[1]
  pIC50: 5.72
[2]; [4]
  IC50: > 30 µM
[3]; [5]
  inhibition at 0.3 µM: 12.1%
[3]; [6]
  inhibition at 1 µM: 32.4%
[3]; [7]
  inhibition at 3 µM: 68.1%

## Cn1c(CNc2cccc(C(=O)NCc3cccc(OCCCCCC(=O)NCCOCCOCCOCCC(=O)Nc4cccc5c4CN(C4CCC(=O)NC4=O)C5=O)c3)c2)nnc1-c1ccncn1 (stereo not drawn) [Compound D113]
[1]
  IC50: > 10 µM
[2]; [8]
  IC50: > 10 µM
[3]; [9]
  inhibition at 1 µM: -6%
[3]; [10]
  inhibition at 3 µM: 0%

## C[C@@H](NC(=O)c1cccc(NCc2nnc(-c3ccncn3)n2C)c1)c1cccc(OCCCCCCn2cc(CCCC(=O)Nc3cccc4c3CN(C3CCC(=O)NC3=O)C4=O)nn2)c1 (stereo partly drawn) [Compound D165]
[1]
  pIC50: 5.59
[2]; [4]
  IC50: > 30 µM
[3]; [5]
  inhibition at 0.3 µM: -1.61%
[3]; [6]
  inhibition at 1 µM: 35.5%
[3]; [7]
  inhibition at 3 µM: 70.1%

## C[C@@H](NC(=O)c1cccc(NCc2nnc(-c3ccncn3)n2C)c1)c1cccc(OCCCCCOCCCOCC(=O)Nc2cccc3c2CN(C2CCC(=O)N(C)C2=O)C3=O)c1 (stereo partly drawn) [Compound D194, N-((1R)-1-(3-((5-(3-(2-((2-(1-methyl-2,6-dioxopiperidin-3-yl)-1-oxoisoindolin-4-yl)amino)-2-oxoethoxy)propoxy)pentyl)oxy)phenyl)ethyl)-3-(((4-methyl-5-(pyrimidin-4-yl)-4H-1,2,4-triazol-3-yl)methyl)amino)benzamide]
[3]; [5]
  inhibition at 0.3 µM: 25%
[3]; [6]
  inhibition at 1 µM: 15%
[3]; [7]
  inhibition at 3 µM: 0%

## Cc1ncsc1-c1ccc(CNC(=O)[C@@H]2C[C@@H](O)CN2C(=O)[C@@H](NC(=O)COCCCOCCCCCOc2ccc3c(c2)[C@H](NC(=O)c2cccc(NCc4nnc(-c5ccncn5)n4C)c2)CCO3)C(C)(C)C)cc1 [Compound D161]
[1]
  pIC50: 5.81
[2]; [4]
  IC50: 7.51 µM
[3]; [5]
  inhibition at 0.3 µM: 15%
[3]; [6]
  inhibition at 1 µM: 23%
[3]; [7]
  inhibition at 3 µM: 30%

## Cn1c(CNc2cccc(C(=O)NCc3cccc(OCCOCCOCCOCCC(=O)Nc4cccc5c4CN(C4CCC(=O)NC4=O)C5=O)c3)c2)nnc1-c1ccncn1 (stereo not drawn) [Compound D107]
[1]
  IC50: > 10 µM
[2]; [8]
  IC50: > 10 µM
[3]; [9]
  inhibition at 1 µM: 19%
[3]; [10]
  inhibition at 3 µM: 20%

## Cc1ncsc1-c1ccc(CNC(=O)[C@@H]2C[C@@H](O)CN2C(=O)[C@@H](NC(=O)CCCc2cn(CCCCCOc3cccc(CNC(=O)c4cccc(NCc5nnc(-c6ccncn6)n5C)c4)c3)nn2)C(C)(C)C)cc1 [Compound D81]
[1]
  IC50: > 10 µM
[2]; [8]
  IC50: > 10 µM
[3]; 0.3 uM, PAXF1657 EV, 24 hrs, read-out: % GRK2 degradation at 0.3 uM in PAXF1657 EV (24 hrs)
  inhibition at 0.3 µM: -3%
[3]; [9]
  inhibition at 1 µM: 1%
[3]; [10]
  inhibition at 3 µM: 5%

## Cn1c(CNc2cccc(C(=O)N[C@H]3CCOc4ccc(OCCCCCCOCCOCCOCCCCCC(=O)Nc5cccc6c5CN(C5CCC(=O)NC5=O)C6=O)cc43)c2)nnc1-c1ccncn1 (stereo partly drawn) [Compound D156, N-((4S)-6-(6-(2-(2-(6-(2-(2,6-dioxopiperidin-3-yl)-1-oxoisoindolin-4-ylamino)-6-oxohexyloxy)ethoxy)ethoxy)hexyloxy)chroman-4-yl)-3-((4-methyl-5-(pyrimidin-4-yl)-4H-1,2,4-triazol-3-yl)methylamino)benzamide]
[1]
  pIC50: 5.67
[2]; [4]
  IC50: > 30 µM
[3]; [5]
  inhibition at 0.3 µM: -8.15%
[3]; [6]
  inhibition at 1 µM: 2.96%
[3]; [7]
  inhibition at 3 µM: 11.5%

## Cc1ncsc1-c1ccc(CNC(=O)[C@@H]2C[C@@H](O)CN2C(=O)[C@@H](NC(=O)COCCCOCCCCCOc2cccc([C@H](C)NC(=O)c3cccc(NCc4nnc(-c5ccncn5)n4C)c3)c2)C(C)(C)C)cc1 [Compound D184, (2S,4R)-1-((S)-3,3-dimethyl-2-(2-(3-((5-(3-((S)-1-(3-(((4-methyl-5-(pyrimidin-4-yl)-4H-1,2,4-triazol-3-yl)methyl)amino)benzamido)ethyl)phenoxy)pentyl)oxy)propoxy)acetamido)butanoyl)-4-hydroxy-N-(4-(4-methylthiazol-5-yl)benzyl)pyrrolidine-2-carboxamide]
[3]; [5]
  inhibition at 0.3 µM: 1.96%
[3]; [6]
  inhibition at 1 µM: 17.7%
[3]; [7]
  inhibition at 3 µM: 20.6%

## Cc1ncsc1-c1ccc(CNC(=O)[C@@H]2C[C@@H](O)CN2C(=O)[C@@H](NC(=O)CCOCCOCCOCCNC(=O)CCCCOc2cccc(CNC(=O)c3cccc(NCc4nnc(-c5ccncn5)n4C)c3)c2)C(C)(C)C)cc1 [Compound D115]
[1]
  IC50: > 10 µM
[2]; [8]
  IC50: 1 to 10 µM
[3]; [9]
  inhibition at 1 µM: -14%
[3]; [10]
  inhibition at 3 µM: -2%

## Cn1c(CNc2cccc(C(=O)N[C@H]3CCOc4ccc(OCCCCCOCCCOCC(=O)Nc5cccc6c5CN(C5CCC(=O)NC5=O)C6=O)cc43)c2)nnc1-c1ccncn1 (stereo partly drawn) [Compound D155, N-((4S)-6-(5-(3-(2-(2-(2,6-dioxopiperidin-3-yl)-1-oxoisoindolin-4-ylamino)-2-oxoethoxy)propoxy)pentyloxy)chroman-4-yl)-3-((4-methyl-5-(pyrimidin-4-yl)-4H-1,2,4-triazol-3-yl)methylamino)benzamide]
[1]
  pIC50: < 4.52
[2]; [4]
  IC50: > 30 µM
[3]; [5]
  inhibition at 0.3 µM: 61.9%
[3]; [6]
  inhibition at 1 µM: 58.1%
[3]; [7]
  inhibition at 3 µM: -21.9%

## Cn1c(CNc2cccc(C(=O)N[C@@H]3CCOc4ccc(OCCCCCOCCCOCC(=O)Nc5cccc6c5CN(C5CCC(=O)NC5=O)C6=O)cc43)c2)nnc1-c1ccncn1 (stereo partly drawn) [Compound D192, N-((4R)-6-(5-(3-(2-(2-(2,6-dioxopiperidin-3-yl)-1-oxoisoindolin-4-ylamino)-2-oxoethoxy)propoxy)pentyloxy)chroman-4-yl)-3-((4-methyl-5-(pyrimidin-4-yl)-4H-1,2,4-triazol-3-yl)methylamino)benzamide]
[3]; [5]
  inhibition at 0.3 µM: 13.5%
[3]; [6]
  inhibition at 1 µM: 37.4%
[3]; [7]
  inhibition at 3 µM: 56.2%

## C[C@H](NC(=O)c1cccc(NCc2nnc(-c3ccncn3)n2C)c1)c1cccc(OCCCCCCOCCOCC(=O)Nc2cccc3c2CN(C2CCC(=O)NC2=O)C3=O)c1 (stereo partly drawn) [Compound D193, N-((1S)-1-(3-((6-(2-(2-((2-(2,6-dioxopiperidin-3-yl)-1-oxoisoindolin-4-yl)amino)-2-oxoethoxy)ethoxy)hexyl)oxy)phenyl)ethyl)-3-(((4-methyl-5-(pyrimidin-4-yl)-4H-1,2,4-triazol-3-yl)methyl)amino)benzamide]
[3]; [5]
  inhibition at 0.3 µM: 19.3%
[3]; [6]
  inhibition at 1 µM: 16.7%
[3]; [7]
  inhibition at 3 µM: 29.6%
